Test results reported in US12350270B2, “Antimalarial agents” (Merck Sharp & Dohme LLC, priority 2019, dated 2025).

test system: parasites (ring stage, in human red blood cell culture); experiment: Parasite LDH growth assay (antiparasite potency, Parasite Assay); type: cell-based, Plasmodium falciparum; details: 0.7% rings, 2% haematocrit, 72 hours at 37° C., LDH readout of parasite growth
How it was run: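 Growth was read by an LDH assay after a freeze–thaw cycle (−80 °C overnight, 4 h thaw at RT). Before that, parasites grew with compound for 72 h at 37 °C under gassed, humidified conditions. The input was a ring-stage culture adjusted to 0.7% parasitemia and 2% haematocrit in serum (5%)/albumax (0.5%)-supplemented RPMI-Hepes.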

| SMILES | EC50 [nM] |
| --- | --- |
| CCC1(CC)CC(=O)N([C@@H]2CCS(=O)(=O)c3ccc(C(=O)N[C@H]4CC(C)(C)Oc5ccccc54)cc32)C(=N)N1 [Example 289, (4R)-4-(4,4-diethyl-2-imino-6-oxo-hexahydropyrimidin-1-yl)-N-[(4S)-2,2-dimethylchroman-4-yl]-1,1-dioxo-3,4-dihydro-2H-thiochromane-6-carboxamide] | 0.6 |

same assay, conditions: Plasmodium falciparum, Erythrocyte, 72 h, 0.7% rings, 2% haematocrit, 72 hours at 37° C., LDH readout of parasite growth

| SMILES | EC50 [nM] |
| --- | --- |
| CCC1(CC)CC(=O)N([C@H]2c3cc(C(=O)N[C@@H]4c5ccccc5OC[C@@]4(C)O)ccc3O[C@]2(C)COC)C(=N)N1 [Example 279, (2S,3S)-3-(4,4-diethyl-2-imino-6-oxo-hexahydropyrimidin-1-yl)-N-[(3S,4R)-3-hydroxy-3-methyl-chroman-4-yl]-2-(methoxymethyl)-2-methyl-3H-benzofuran-5-carboxamide] | 31.4 |
| CCC1(CC)CC(=O)N([C@H]2c3cc(C(=O)N[C@@H]4c5ccccc5OC[C@@]4(C)O)ccc3O[C@@]2(C)COC)C(=N)N1 [Example 281, (2R,3S)-3-(4,4-diethyl-2-imino-6-oxo-hexahydropyrimidin-1-yl)-N-[(3S,4R)-3-hydroxy-3-methyl-chroman-4-yl]-2-(methoxymethyl)-2-methyl-3H-benzofuran-5-carboxamide] | 1.1 |
| CCC1(CC)CC(=O)N([C@@H]2C[C@@H](COC)Oc3ccc(C(=O)N[C@@H]4c5ccccc5OC[C@@]4(C)O)cc32)C(=N)N1 [Example 283, (2S,4R)-4-(4,4-diethyl-2-imino-6-oxo-hexahydropyrimidin-1-yl)-N-[(3S,4R)-3-hydroxy-3-methyl-chroman-4-yl]-2-(methoxymethyl)chromane-6-carboxamide] | 2.6 |
| CC[C@]1(C)CC(=O)N(C2c3cc(C(=O)N[C@@H]4c5ccccc5OC(C)(C)[C@H]4O)ccc3OCC2(C)OC)C(=N)N1 (stereo partly drawn) [Example 284, 4-[(4R)-4-ethyl-2-imino-4-methyl-6-oxo-hexahydropyrimidin-1-yl]-N-[(3S,4R)-3-hydroxy-2,2-dimethyl-chroman-4-yl]-3-methoxy-3-methyl-chromane-6-carboxamide] | 8.5 |
| CCC1(CC)CC(=O)N(C2c3cc(C(=O)N[C@@H]4c5ccccc5C[C@H]4O)ccc3OC2(COC)COC)C(=N)N1 (stereo partly drawn) [Example 285, 3-(4,4-diethyl-2-imino-6-oxo-hexahydropyrimidin-1-yl)-N-[(1R,2R)-2-hydroxyindan-1-yl]-2,2-bis(methoxymethyl)-3H-benzofuran-5-carboxamide] | 35.5 |
| CCC1(CC)CC(=O)N([C@@H]2c3cc(C(=O)N[C@@H]4c5ccccc5OC[C@@]4(C)O)ccc3OC[C@@H]2COC)C(=N)N1 [Example 286, (3S,4S)-4-(4,4-diethyl-2-imino-6-oxo-hexahydropyrimidin-1-yl)-N-[(3S,4R)-3-hydroxy-3-methyl-chroman-4-yl]-3-(methoxymethyl)chromane-6-carboxamide] | 240 |
| CCC1(CC)CC(=O)N([C@H]2c3cc(C(=O)N[C@@H]4c5ccccc5OC[C@@]4(C)O)ccc3OC[C@H]2COC)C(=N)N1 [Example 287, (3R,4R)-4-(4,4-diethyl-2-imino-6-oxo-hexahydropyrimidin-1-yl)-N-[(3S,4R)-3-hydroxy-3-methyl-chroman-4-yl]-3-(methoxymethyl)chromane-6-carboxamide] | 1.9 |
| CCC1(CC)CC(=O)N([C@H]2c3cc(C(=O)N[C@@H]4c5ccccc5OC[C@@]4(C)O)ccc3OC[C@@H]2COC)C(=N)N1 [Example 288, (3S,4R)-4-(4,4-diethyl-2-imino-6-oxo-hexahydropyrimidin-1-yl)-N-[(3S,4R)-3-hydroxy-3-methyl-chroman-4-yl]-3-(methoxymethyl)chromane-6-carboxamide] | 1.8 |
| CCC1(CC)CC(=O)N([C@H]2c3cc(C(=O)N[C@@H]4c5ccccc5C(F)(F)[C@H]4O)ccc3O[C@@]2(C)COC)C(=N)N1 [Example 290, (2R,3S)-3-(4,4-diethyl-2-imino-6-oxo-hexahydropyrimidin-1-yl)-N-[(1R,2S)-3,3-difluoro-2-hydroxy-indan-1-yl]-2-(methoxymethyl)-2-methyl-3H-benzofuran-5-carboxamide] | 0.3 |
| CCC1(CC)CC(=O)N(C2CC(C(=O)N(C)C)Oc3ccc(C(=O)N[C@@H]4c5ccccc5C[C@@]4(C)O)cc32)C(=N)N1 (stereo partly drawn) [Example 292, 4-(4,4-diethyl-2-imino-6-oxo-hexahydropyrimidin-1-yl)-N6-[(1R,2R)-2-hydroxy-2-methyl-indan-1-yl]-N2,N2-dimethyl-chromane-2,6-dicarboxamide] | 49.7 |
| CC1(C)CC(=O)N([C@@H]2CCS(=O)(=O)c3ccc(C(=O)N[C@H]4C[C@H](C(F)(F)F)Oc5ccccc54)cc32)C(=N)N1 [Example 293, (4R)-4-(2-imino-4,4-dimethyl-6-oxo-hexahydropyrimidin-1-yl)-1,1-dioxo-N-[(2R,4S)-2-(trifluoromethyl)chroman-4-yl]-3,4-dihydro-2H-thiochromene-6-carboxamide] | 2.8 |
| CC1(C)CC(=O)N([C@H]2CCS(=O)(=O)c3ccc(C(=O)N[C@H]4C[C@H](C(F)(F)F)Oc5ccccc54)cc32)C(=N)N1 [Example 294, (4S)-4-(2-imino-4,4-dimethyl-6-oxo-hexahydropyrimidin-1-yl)-1,1-dioxo-N-[(2R,4S)-2-(trifluoromethyl)chroman-4-yl]-3,4-dihydro-2H-thiochromene-6-carboxamide] | 259 |
| CCC1(CC)CC(=O)N([C@@H]2c3cc(C(=O)N[C@@H]4c5ccccc5OC(C)(C)[C@H]4O)ccc3OC[C@@]2(C)OC)C(=N)N1 [Example 295, (3S,4R)-4-(4,4-diethyl-2-imino-6-oxo-hexahydropyrimidin-1-yl)-N-[(3S,4R)-3-hydroxy-2,2-dimethyl-chroman-4-yl]-3-methoxy-3-methyl-chromane-6-carboxamide] | 100 |
| CCC1(CC)CC(=O)N([C@H]2c3cc(C(=O)N[C@@H]4c5ccccc5OC(C)(C)[C@H]4O)ccc3OC[C@]2(C)OC)C(=N)N1 [Example 296, (3R,4S)-4-(4,4-diethyl-2-imino-6-oxo-hexahydropyrimidin-1-yl)-N-[(3S,4R)-3-hydroxy-2,2-dimethyl-chroman-4-yl]-3-methoxy-3-methyl-chromane-6-carboxamide] | 0.3 |
| CCC1(CC)CC(=O)N(C2c3cc(C(=O)N[C@@H]4c5ccccc5C[C@@]4(C)O)ccc3OC2(COC)COC)C(=N)N1 (stereo partly drawn) [Example 297, 3-(4,4-diethyl-2-imino-6-oxo-hexahydropyrimidin-1-yl)-N-[(1R,2R)-2-hydroxy-2-methyl-indan-1-yl]-2,2-bis(methoxymethyl)-3H-benzofuran-5-carboxamide] | 241 |
| CCC1(CC)CC(=O)N([C@H]2c3cc(C(=O)N[C@@H]4c5ccccc5OC(C)(C)[C@H]4O)ccc3OC[C@H]2COC)C(=N)N1 [Example 298, (3R,4R)-4-(4,4-diethyl-2-imino-6-oxotetrahydropyrimidin-1(2H)-yl)-N-((3S,4R)-3-hydroxy-2,2-dimethylchroman-4-yl)-3-(methoxymethyl)chromane-6-carboxamide] | 0.5 |
| CCC1(CC)CC(=O)N([C@H]2c3cc(C(=O)N[C@@H]4c5ccccc5OC(C)(C)[C@H]4O)ccc3OC[C@@H]2COC)C(=N)N1 [Example 299, (3S,4R)-4-(4,4-diethyl-2-imino-6-oxo-hexahydropyrimidin-l-yl)-N-[(3S,4R)-3-hydroxy-2,2-dimethyl-chroman-4-yl]-3-(methoxymethyl)chromane-6-carboxamide] | 0.8 |
